Measurements reported in ChEMBL document CHEMBL1287642, “Synthesis, antiviral activity and cytotoxicity evaluation of Schiff bases of some 2-phenyl quinazoline-4(3)H-ones” (Eur J Med Chem, 2010).
Converted amounts (≈) assume the structure as drawn.

These compounds were tested on Vaccinia virus (assay: Antiviral activity against Vaccinia virus infected in human HEL cells assessed as protection against virus-induced cytopathogenicity after 2 days). Conditions: Orthopoxvirus vaccinia, 48 h.
Format: functional, organism-based

Going from `O=c1[nH]c(=O)n([C@H]2C[C@H](O)[C@@H](CO)O2)cc1/C=C/Br` [BRIVUDINE] to `NC(=O)c1ncn([C@@H]2O[C@H](CO)[C@@H](O)[C@H]2O)n1` [RIBAVIRIN], the EC50 rises from 4 µg/mL (≈ 12 µM) to greater than 250 µg/mL.

Going from `Nc1ccn(C[C@@H](CO)OCP(=O)(O)O)c(=O)n1.O.O` [CIDOFOVIR] to `Nc1nc2c(ncn2COC(CO)CO)c(=O)[nH]1` [GANCICLOVIR], the EC50 rises from 8 µg/mL to greater than 100 µg/mL.

`C/C(=N\n1c(-c2ccccc2)nc2ccccc2c1=O)c1ccccc1` and `C/C(=N\n1c(-c2ccccc2)nc2ccccc2c1=O)c1ccc(O)cc1` cannot be ordered by EC50: greater than 100 µg/mL for the first, greater than 100 µg/mL for the second.

First: O=c1c2ccccc2nc(-c2ccccc2)n1/N=C/c1cccc([N+](=O)[O-])c1
Second: O=c1c2ccccc2nc(-c2ccccc2)n1/N=C/c1ccccc1
The EC50 of the first is higher: greater than 20 µg/mL for the first, 9 µg/mL (≈ 27.7 µM) for the second.

Going from `COc1ccc(/C=N/n2c(-c3ccccc3)nc3ccccc3c2=O)cc1O` to `COc1ccc(/C=N/n2c(-c3ccccc3)nc3ccccc3c2=O)cc1`, the EC50 falls from 20 µg/mL (≈ 53.9 µM) to 9 µg/mL (≈ 25.3 µM) (2.2-fold).

First: O=c1c2ccccc2nc(-c2ccccc2)n1/N=C/c1ccccc1O
Second: COc1ccccc1/C=N/n1c(-c2ccccc2)nc2ccccc2c1=O
The EC50 of the first is lower: 0.8 µg/mL (≈ 2.34 µM) for the first, greater than 20 µg/mL for the second.

Going from `O=c1c2ccccc2nc(-c2ccccc2)n1/N=C/c1ccc(Cl)cc1` to `O=c1c2ccccc2nc(-c2ccccc2)n1/N=C/c1ccc(O)cc1`, the EC50 falls from 20 µg/mL (≈ 55.6 µM) to 12 µg/mL (≈ 35.2 µM) (1.7-fold).
